The subject of data set [1] is U87 MG cells expressing AKT-gen2. Nature of the data set: Effect of chemotherapy on AKT-gen2 SGT (FLAG) expression. The class given is cell-based. The settings on record: 48 hr; for FLAG expression of AKT-gen2 SGT vs control: carboplatin 200 μM or TMZ 300 μM, immunoblot. As for the experimental part: U87 MG cells expressing AKT-gen2 were treated with carboplatin (200 μM), TMZ (300 μM), or DMSO, and lysed after 48 hours. Densitometry was used to quantify the GAPDH-normalized FLAG signal.
Cells were also treated with carboplatin (125 μM) or DMSO for 48 hours and immunofluorescence microscopy was performed using antibodies against the proteins as shown in FIG. 29B. The expression of each variant was quantified as the mean FLAG expression on a per-cell basis.
(§1) To determine if a CK2-regulated SGT would cooperate with chemotherapies used to treat glioblastoma, we measured the response of AKT-gen2 transductants to a combination of GCV with temozolomide (TMZ) or carboplatin. We hypothesized that a synergistic effect could occurs because CK2 contributes to DNA damage response and responds to stress signals; it seemed sensible that this could drive higher CK2 activity26,27,29.
[…]. We further examined the extent of carboplatin-mediated effects on CK2 expression increase through immunofluorescence microscopy (FIG. 29B). AKT-gen2 transductants were plated in 96-well glass-bottomed plates for imaging and treated with a reduced carboplatin concentration (125 μM) to promote the retention of adherent cells.
Because we observed increased CK2α and CK2α′ in carboplatin-treated cells (FIGS. 27A, 36A, and 36B), we next examined if the carboplatin-dependent increase in AKT-gen2 expression relies on CK2 expression. In U87 MG AKT-gen2 transductants expressing CK2 (α/α′ catalytic subunits) or control shRNA, CK2α knockdown abrogated the carboplatin-mediated increase in SGT expression (FIG. 29C).
For orientation: In western blotting, separated proteins are transferred to a membrane and probed.

A further data set has as its system CK2α and CK2α′. The data set can be described thus: CK2 catalytic subunit expression after TMZ or carboplatin (immunofluorescence). Particulars: U87 MG cells, drug treated. The class given is cell-based. As for the experimental part:
FIGS. 36A and 36B. Effect of TMZ or carboplatin on CK2 expression. U87 MG cells were subjected to immunofluorescence microscopy using antibodies against the two CK2 catalytic (FIG. 36A: CK2α, FIG. 36B: CK2α′) subunits. Image is representative of n=3 replicates and data are plotted as mean±sd. A Student's t test was applied to determine the significance of observed differences; *, **, and *** indicate p=0.05, 0.01, or 0.001, respectively.
as §1

Data set [2] has as its system U87 MG AKTgen2 transductants. The data set can be described thus: Cell death by flow cytometry (TO-PRO-3), carboplatin pre-treatment followed by GCV. Particulars: carboplatin 200 μM two days and/or GCV 50 μM three days.
Description: Flow cytometry for cell death quantification. For cell death experiments, cells were plated in 6-well plates, and cell treatments were performed as described in figure legends. At the conclusion of experiments, floating and adherent cells were collected, resuspended in PBS containing TO-PRO-3 (Life Technologies, 1:10,000), and stored on ice until analysis. Within an hour of collection, cells were analyzed for TO-PRO-3 permeability with a FACSCalibur cytometer (BD Biosciences). Data collected from flow cytometry experiments was analyzed in R using the FlowCore, ggCyto, and OpenCyto packages.
Cells expressing AKT-gen2 were also pre-treated with DMSO or carboplatin (200 μM) for two days, followed by treatment with DMSO or GCV (50 μM) administration for three days. Cell death was then measured by flow cytometry through TOPRO staining.
In data set [3] the test system is G816 cells (glioma-initiating cell line). The data set can be described thus: p38-regulated HSVtk constructs: FLAG abundance. The class given is cell-based, human. Particulars: for FLAG expression of FLAG-NLS-HSVtk-MEF2A: two days, SB 203580 10 μM, trametinib 50 nM. As for the experimental part:
Referring to FIG. 18B, four designs tested included peptide sequences from the MAPK targets CHOP, MEF2A, p21, and FRA1. […] Sequences shown in blue were taken from proteins primarily phosphorylated by p38, while domains in gray were taken from the original FRA 1-PEST PEST design. The ERK recognition sequence was removed from these designs to improve specificity toward p38. G816 cells (glioma-initiating cell line) expressing each of the four HSVtk constructs were grown in 21% oxygen or 1% oxygen (hypoxia), with or without SB 203580 (p38 inhibitor, 10 μM for two days. Hypoxic induction of p38 phosphorylation promoted protein stabilization, which was abrogated with the addition of a p38 inhibitor to varying degrees for each construct.
Referring to FIG. 22A, G816-FLAG-NLS-HSVtk-MEF2A cells were treated with DMSO (vehicle), GCV (50 μM), or TMZ (500 μM) for up to 48 hours.
Referring to FIG. 22C, G816-FLAG-NLS-HSVtk-MEF2A cells were treated with DMSO (vehicle), SB 203580 (p38 inhibitor (p38i), 10 μM), or trametinib (MEK inhibitor (MEKi), 50 nM), in addition to TNFα, GCV, or TMZ for two days.

Data set [4] deals with cells expressing yCD-FIRE. The data set can be described thus: yCD-FIRE expression and 5-FC cell killing. The class given is cell-based.

As to `N.N.O=C([O-])C1(C(=O)[O-])CCC1.[Pt+2]` [Carboplatin, carboplatin], the “carboplatin-mediated increase in SGT expression” value in data set [1] (CK2α knockdown, carboplatin 200 μM) was “abrogated”. Besides, the “FLAG expression of AKT-gen2 SGT” value in data set [1] (carboplatin 125 μM, immunofluorescence) is listed as “significant enhancement in FLAG expression”. In data set [1], the “FLAG expression of AKT-gen2 SGT vs control” value is on record as “significant increase in FLAG expression”. Also, the “carboplatin-mediated change in SGT accumulation” value in data set [1] (cells expressing CK2α′ shRNA, carboplatin 200 μM) was “small but insignificant increase”. In addition, the “carboplatin-mediated change in AKT-gen2 expression” value in data set [1] (cells expressing control shRNA, carboplatin 200 μM) is on record as “significant increase”. The “CK2α and CK2α′ expression” value in the data set on CK2α and CK2α′ was “stronger increase”. Further, in data set [2], the “reduction in cell viability” value is roughly 15%.
As to `Nc1nc(=O)c2ncn(COC(CO)CO)c2[nH]1` [GCV, ganciclovir], the “FLAG abundance of FLAG-NLS-HSVtk-MEF2A relative to vehicle” value in data set [3] (GCV 50 μM or TMZ 500 μM, 48 hours) is “increased FLAG abundance”. The “FLAG expression of FLAG-NLS-HSVtk-MEF2A” value in data set [3] is recorded as “increased”.
Turning to `C[S+]([O-])c1ccc(-c2nc(-c3ccncc3)c(-c3ccc(F)cc3)[nH]2)cc1` (stereo not drawn) [SB 203580], the “FLAG expression of FLAG-NLS-HSVtk-MEF2A” value in data set [3] is “attenuated in some cases”.
Regarding `Cn1nnc2c(C(N)=O)ncn2c1=O` [TMZ, temozolomide], in data set [1], the “FLAG expression of AKT-gen2 SGT vs control” value is “no effect”.
As to `Nc1nc(=O)[nH]cc1F` [Variant 5-FC, 5-fluorocytosine], in data set [4] (cells expressing yCD-FIRE), the “cell viability in response to 5-FC plus growth factors” value is “decreases”. The “5-FC IC50” value in data set [4] (cells treated with growth factors vs not treated) was “lower”.
For the compound `CC(=O)Nc1cccc(-n2c(=O)n(C3CC3)c(=O)c3c(Nc4ccc(I)cc4F)n(C)c(=O)c(C)c32)c1` [trametinib, N-[3-[3-cyclopropyl-5-(2-fluoro-4-iodoanilino)-6,8-dimethyl-2,4,7-trioxopyrido[4,3-d]pyrimidin-1-yl]phenyl]acetamide], the “FLAG expression of FLAG-NLS-HSVtk-MEF2A” value in data set [3] is given as “promoted PEST stabilization”.
Turning to TNFα, the “FLAG expression of FLAG-NLS-HSVtk-MEF2A” value in data set [3] is listed as “increased”.

The record behind these values is patent publication US20250228978A1, “ENGINEERING SUICIDE GENE APPROACHES TO IMPROVE CHEMOTHERAPEUTIC RESPONSE IN CANCER” (University of Virginia Patent Foundation, priority 0001, published 2025).
